Reference: ChEMBL document CHEMBL1909046, “DrugMatrix in vitro pharmacology data”

target: T1, Alpha-1A adrenergic receptor (Rattus norvegicus, UniProt P43140); assay: DRUGMATRIX: Alpha-1A adrenergic receptor radioligand binding (ligand: prazosin); format: cell membranes, Wistar, Submaxillary gland, Membrane; settings: Not Active = under 50% inhibition at 10 µM
T1 sequence (P43140 whole entry): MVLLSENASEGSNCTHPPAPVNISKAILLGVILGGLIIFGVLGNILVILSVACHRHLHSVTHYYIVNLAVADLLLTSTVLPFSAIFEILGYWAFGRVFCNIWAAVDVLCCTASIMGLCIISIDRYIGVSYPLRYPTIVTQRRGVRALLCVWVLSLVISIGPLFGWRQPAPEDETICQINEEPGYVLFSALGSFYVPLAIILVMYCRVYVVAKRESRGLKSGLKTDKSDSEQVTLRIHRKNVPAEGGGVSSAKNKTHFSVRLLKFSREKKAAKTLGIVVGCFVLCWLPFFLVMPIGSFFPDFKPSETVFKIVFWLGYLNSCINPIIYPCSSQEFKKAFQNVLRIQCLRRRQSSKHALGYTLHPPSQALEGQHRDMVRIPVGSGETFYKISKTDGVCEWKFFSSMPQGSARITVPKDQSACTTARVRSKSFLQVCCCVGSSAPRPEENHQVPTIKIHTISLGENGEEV

| SMILES | IC50 | Ki |
| --- | --- | --- |
| NC(=O)N1c2ccccc2CCc2ccccc21 | Not Active |  |
| CC(C)C(Br)C(=O)NC(N)=O (stereo not drawn) [BROMISOVALUM] | Not Active |  |
| COc1ccc(C[C@H]2NC[C@H](O)[C@H]2OC(C)=O)cc1 [ANISOMYCIN] | Not Active | Not Active |
| C[C@]12CCC(=O)C=C1CC[C@@H]1[C@@H]2CC[C@@]2(C)[C@H]1CC[C@]2(C)O [METHYLTESTOSTERONE] | Not Active |  |
| O=C1CC[C@@H](N2C(=O)c3ccccc3C2=O)C(=O)N1 | Not Active |  |
| Cc1c(O)c(=O)ccn1C [DEFERIPRONE] | Not Active |  |

target: T2, B2 bradykinin receptor (Homo sapiens, UniProt P30411); assay: not given; format: cell membranes, Membrane; settings: chem-1; also: in other assays of this panel Not Active means under 50% inhibition at 10 µM
T2 sequence (P30411 whole entry): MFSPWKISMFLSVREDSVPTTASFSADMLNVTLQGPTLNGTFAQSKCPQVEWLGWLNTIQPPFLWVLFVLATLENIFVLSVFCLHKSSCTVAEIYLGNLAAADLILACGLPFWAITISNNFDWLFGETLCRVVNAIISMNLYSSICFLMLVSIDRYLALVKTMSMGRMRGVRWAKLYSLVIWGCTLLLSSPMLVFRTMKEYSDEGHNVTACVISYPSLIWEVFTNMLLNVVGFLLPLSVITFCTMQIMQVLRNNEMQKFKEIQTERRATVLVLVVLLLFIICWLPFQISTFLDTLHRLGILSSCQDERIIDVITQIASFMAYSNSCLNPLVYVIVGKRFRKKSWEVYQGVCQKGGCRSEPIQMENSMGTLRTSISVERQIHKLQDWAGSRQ

| SMILES | IC50 | Ki |
| --- | --- | --- |
| Cc1ccc(N(CC2=NCCN2)c2cccc(O)c2)cc1 [PHENTOLAMINE] | Not Active |  |
| NC(=O)N1c2ccccc2CCc2ccccc21 | Not Active |  |
| CC(C)C(Br)C(=O)NC(N)=O (stereo not drawn) [BROMISOVALUM] | Not Active |  |
| COc1ccc(C[C@H]2NC[C@H](O)[C@H]2OC(C)=O)cc1 [ANISOMYCIN] | Not Active | Not Active |
| C[C@]12CCC(=O)C=C1CC[C@@H]1[C@@H]2CC[C@@]2(C)[C@H]1CC[C@]2(C)O [METHYLTESTOSTERONE] | Not Active |  |
| O=C1CC[C@@H](N2C(=O)c3ccccc3C2=O)C(=O)N1 | Not Active |  |
| Cc1c(O)c(=O)ccn1C [DEFERIPRONE] | Not Active |  |
| Clc1cccc(Cl)c1NC1=NCCN1 [CLONIDINE] | Not Active |  |
| CN(C)CCCN1c2ccccc2Sc2ccc(Cl)cc21 [CHLORPROMAZINE] | Not Active |  |

target: T3, Substance-K receptor (Homo sapiens, UniProt P21452); assay: not given; format: cell membranes, CHO, Membrane; settings: cho; also: in other assays of this panel Not Active means under 50% inhibition at 10 µM
T3 sequence (P21452 whole entry): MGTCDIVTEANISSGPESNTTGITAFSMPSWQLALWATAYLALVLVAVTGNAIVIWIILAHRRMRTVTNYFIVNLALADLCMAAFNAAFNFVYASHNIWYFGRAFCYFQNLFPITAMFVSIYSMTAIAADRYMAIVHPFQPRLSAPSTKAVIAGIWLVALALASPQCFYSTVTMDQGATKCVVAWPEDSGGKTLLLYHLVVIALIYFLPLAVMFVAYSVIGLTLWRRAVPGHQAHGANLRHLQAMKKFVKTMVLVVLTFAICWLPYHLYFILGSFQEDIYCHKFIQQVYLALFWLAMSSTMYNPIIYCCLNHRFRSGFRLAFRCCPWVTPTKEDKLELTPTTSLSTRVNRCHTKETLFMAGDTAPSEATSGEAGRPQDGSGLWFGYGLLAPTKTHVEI

| SMILES | IC50 | Ki |
| --- | --- | --- |
| Cc1ccc(N(CC2=NCCN2)c2cccc(O)c2)cc1 [PHENTOLAMINE] | Not Active |  |
| NC(=O)N1c2ccccc2CCc2ccccc21 | Not Active |  |
| CC(C)C(Br)C(=O)NC(N)=O (stereo not drawn) [BROMISOVALUM] | Not Active |  |
| COc1ccc(C[C@H]2NC[C@H](O)[C@H]2OC(C)=O)cc1 [ANISOMYCIN] | Not Active | Not Active |
| C[C@]12CCC(=O)C=C1CC[C@@H]1[C@@H]2CC[C@@]2(C)[C@H]1CC[C@]2(C)O [METHYLTESTOSTERONE] | Not Active |  |
| O=C1CC[C@@H](N2C(=O)c3ccccc3C2=O)C(=O)N1 | Not Active |  |
| Cc1c(O)c(=O)ccn1C [DEFERIPRONE] | Not Active |  |
| Clc1cccc(Cl)c1NC1=NCCN1 [CLONIDINE] | Not Active |  |

same assay, conditions: read-out: IC50

| SMILES | IC50 [µM] |
| --- | --- |
| CN(C)CCCN1c2ccccc2Sc2ccc(Cl)cc21 [CHLORPROMAZINE] | 27.2 |

same assay, conditions: read-out: Ki

| SMILES | Ki [µM] |
| --- | --- |
| CN(C)CCCN1c2ccccc2Sc2ccc(Cl)cc21 [CHLORPROMAZINE] | 9.07 |

target: T4, Neuropeptide Y receptor type 1 (Homo sapiens, UniProt P25929); assay: not given; format: cell membranes, Membrane; settings: sk-n-mc; also: in other assays of this panel Not Active means under 50% inhibition at 10 µM
T4 sequence (P25929 whole entry): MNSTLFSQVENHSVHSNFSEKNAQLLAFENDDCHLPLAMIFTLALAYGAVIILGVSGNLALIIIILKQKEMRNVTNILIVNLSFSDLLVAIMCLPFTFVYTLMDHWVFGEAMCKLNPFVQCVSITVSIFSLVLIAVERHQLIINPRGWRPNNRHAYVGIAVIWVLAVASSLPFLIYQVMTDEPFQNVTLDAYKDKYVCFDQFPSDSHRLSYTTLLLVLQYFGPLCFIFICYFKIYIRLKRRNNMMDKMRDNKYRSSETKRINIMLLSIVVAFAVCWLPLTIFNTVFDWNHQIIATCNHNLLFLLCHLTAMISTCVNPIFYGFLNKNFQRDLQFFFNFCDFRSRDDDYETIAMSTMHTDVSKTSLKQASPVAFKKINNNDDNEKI

| SMILES | IC50 | Ki |
| --- | --- | --- |
| Cc1ccc(N(CC2=NCCN2)c2cccc(O)c2)cc1 [PHENTOLAMINE] | Not Active |  |
| NC(=O)N1c2ccccc2CCc2ccccc21 | Not Active |  |
| CC(C)C(Br)C(=O)NC(N)=O (stereo not drawn) [BROMISOVALUM] | Not Active |  |
| COc1ccc(C[C@H]2NC[C@H](O)[C@H]2OC(C)=O)cc1 [ANISOMYCIN] | Not Active | Not Active |
| C[C@]12CCC(=O)C=C1CC[C@@H]1[C@@H]2CC[C@@]2(C)[C@H]1CC[C@]2(C)O [METHYLTESTOSTERONE] | Not Active |  |
| O=C1CC[C@@H](N2C(=O)c3ccccc3C2=O)C(=O)N1 | Not Active |  |
| Cc1c(O)c(=O)ccn1C [DEFERIPRONE] | Not Active |  |
| Clc1cccc(Cl)c1NC1=NCCN1 [CLONIDINE] | Not Active |  |
| CN(C)CCCN1c2ccccc2Sc2ccc(Cl)cc21 [CHLORPROMAZINE] | Not Active |  |

target: T5, Neuropeptide Y receptor type 2 (Homo sapiens, UniProt P49146); assay: not given; format: cell membranes, Membrane; settings: kan-ts; also: in other assays of this panel Not Active means under 50% inhibition at 10 µM
T5 sequence (P49146 whole entry): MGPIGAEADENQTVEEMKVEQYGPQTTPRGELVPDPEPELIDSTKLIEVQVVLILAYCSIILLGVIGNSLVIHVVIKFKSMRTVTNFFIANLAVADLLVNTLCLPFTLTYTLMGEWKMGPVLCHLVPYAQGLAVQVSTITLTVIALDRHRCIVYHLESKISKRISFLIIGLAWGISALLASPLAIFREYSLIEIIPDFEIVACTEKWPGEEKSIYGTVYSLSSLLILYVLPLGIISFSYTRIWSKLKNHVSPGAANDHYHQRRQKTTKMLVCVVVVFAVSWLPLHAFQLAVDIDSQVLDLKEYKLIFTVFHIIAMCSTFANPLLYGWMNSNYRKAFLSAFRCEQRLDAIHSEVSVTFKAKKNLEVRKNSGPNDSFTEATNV

| SMILES | IC50 | Ki |
| --- | --- | --- |
| Cc1ccc(N(CC2=NCCN2)c2cccc(O)c2)cc1 [PHENTOLAMINE] | Not Active |  |
| NC(=O)N1c2ccccc2CCc2ccccc21 | Not Active |  |
| CC(C)C(Br)C(=O)NC(N)=O (stereo not drawn) [BROMISOVALUM] | Not Active |  |
| COc1ccc(C[C@H]2NC[C@H](O)[C@H]2OC(C)=O)cc1 [ANISOMYCIN] | Not Active | Not Active |
| C[C@]12CCC(=O)C=C1CC[C@@H]1[C@@H]2CC[C@@]2(C)[C@H]1CC[C@]2(C)O [METHYLTESTOSTERONE] | Not Active |  |
| O=C1CC[C@@H](N2C(=O)c3ccccc3C2=O)C(=O)N1 | Not Active |  |
| Cc1c(O)c(=O)ccn1C [DEFERIPRONE] | Not Active |  |
| Clc1cccc(Cl)c1NC1=NCCN1 [CLONIDINE] | Not Active |  |
| CN(C)CCCN1c2ccccc2Sc2ccc(Cl)cc21 [CHLORPROMAZINE] | Not Active |  |

target: Nitric oxide synthase 1 (Rattus norvegicus, UniProt P29476); assay: not given; format: tissue-based, Cerebellum; settings: not given; also: in other assays of this panel Not Active means under 50% inhibition at 10 µM
Sequence (P29476 whole entry): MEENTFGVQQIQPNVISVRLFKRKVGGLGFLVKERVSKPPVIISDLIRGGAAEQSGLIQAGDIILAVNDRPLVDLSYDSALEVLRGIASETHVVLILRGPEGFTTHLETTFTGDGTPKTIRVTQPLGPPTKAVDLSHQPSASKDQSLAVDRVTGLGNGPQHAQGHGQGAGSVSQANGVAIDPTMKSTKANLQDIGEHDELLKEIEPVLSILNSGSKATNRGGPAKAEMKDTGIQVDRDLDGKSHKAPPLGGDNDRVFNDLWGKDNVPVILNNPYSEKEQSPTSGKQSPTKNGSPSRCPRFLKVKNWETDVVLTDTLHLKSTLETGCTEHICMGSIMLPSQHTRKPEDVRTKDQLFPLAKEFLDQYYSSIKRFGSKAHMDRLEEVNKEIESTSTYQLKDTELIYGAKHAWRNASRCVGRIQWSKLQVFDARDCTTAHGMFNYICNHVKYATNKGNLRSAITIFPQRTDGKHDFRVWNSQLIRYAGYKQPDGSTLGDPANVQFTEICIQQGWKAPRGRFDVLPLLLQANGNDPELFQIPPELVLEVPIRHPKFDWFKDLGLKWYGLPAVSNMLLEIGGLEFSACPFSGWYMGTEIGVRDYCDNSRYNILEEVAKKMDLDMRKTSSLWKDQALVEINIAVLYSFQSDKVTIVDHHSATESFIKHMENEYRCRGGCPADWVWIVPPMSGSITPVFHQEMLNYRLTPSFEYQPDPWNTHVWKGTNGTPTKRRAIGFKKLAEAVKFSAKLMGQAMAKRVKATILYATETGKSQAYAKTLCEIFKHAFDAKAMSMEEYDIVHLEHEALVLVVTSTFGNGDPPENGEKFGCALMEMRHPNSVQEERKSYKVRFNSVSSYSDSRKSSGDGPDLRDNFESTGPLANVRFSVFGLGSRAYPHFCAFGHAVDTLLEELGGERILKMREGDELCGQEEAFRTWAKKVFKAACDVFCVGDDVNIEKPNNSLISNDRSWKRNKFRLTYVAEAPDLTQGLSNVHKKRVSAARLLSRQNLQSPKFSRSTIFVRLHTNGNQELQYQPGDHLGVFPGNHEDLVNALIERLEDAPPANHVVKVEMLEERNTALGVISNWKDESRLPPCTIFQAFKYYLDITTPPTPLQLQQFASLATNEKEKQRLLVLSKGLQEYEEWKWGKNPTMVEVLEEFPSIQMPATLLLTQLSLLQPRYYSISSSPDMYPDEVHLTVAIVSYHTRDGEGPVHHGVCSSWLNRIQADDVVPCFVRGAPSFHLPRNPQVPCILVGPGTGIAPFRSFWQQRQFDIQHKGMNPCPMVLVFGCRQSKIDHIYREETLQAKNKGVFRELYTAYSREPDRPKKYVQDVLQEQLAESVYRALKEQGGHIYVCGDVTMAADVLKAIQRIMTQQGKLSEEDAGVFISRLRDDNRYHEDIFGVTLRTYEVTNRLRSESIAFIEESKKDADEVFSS

| SMILES | IC50 | Ki |
| --- | --- | --- |
| Cc1ccc(N(CC2=NCCN2)c2cccc(O)c2)cc1 [PHENTOLAMINE] | Not Active |  |
| NC(=O)N1c2ccccc2CCc2ccccc21 | Not Active |  |
| CC(C)C(Br)C(=O)NC(N)=O (stereo not drawn) [BROMISOVALUM] | Not Active |  |
| COc1ccc(C[C@H]2NC[C@H](O)[C@H]2OC(C)=O)cc1 [ANISOMYCIN] | Not Active | Not Active |
| C[C@]12CCC(=O)C=C1CC[C@@H]1[C@@H]2CC[C@@]2(C)[C@H]1CC[C@]2(C)O [METHYLTESTOSTERONE] | Not Active |  |
| O=C1CC[C@@H](N2C(=O)c3ccccc3C2=O)C(=O)N1 | Not Active |  |
| Cc1c(O)c(=O)ccn1C [DEFERIPRONE] | Not Active |  |
| Clc1cccc(Cl)c1NC1=NCCN1 [CLONIDINE] | Not Active |  |
| CN(C)CCCN1c2ccccc2Sc2ccc(Cl)cc21 [CHLORPROMAZINE] | Not Active |  |

target: Receptor tyrosine-protein kinase erbB-2 (Homo sapiens, UniProt P04626); assay: biochemical; format: cell-based, Insect cells; settings: insect cells
Sequence (P04626 whole entry): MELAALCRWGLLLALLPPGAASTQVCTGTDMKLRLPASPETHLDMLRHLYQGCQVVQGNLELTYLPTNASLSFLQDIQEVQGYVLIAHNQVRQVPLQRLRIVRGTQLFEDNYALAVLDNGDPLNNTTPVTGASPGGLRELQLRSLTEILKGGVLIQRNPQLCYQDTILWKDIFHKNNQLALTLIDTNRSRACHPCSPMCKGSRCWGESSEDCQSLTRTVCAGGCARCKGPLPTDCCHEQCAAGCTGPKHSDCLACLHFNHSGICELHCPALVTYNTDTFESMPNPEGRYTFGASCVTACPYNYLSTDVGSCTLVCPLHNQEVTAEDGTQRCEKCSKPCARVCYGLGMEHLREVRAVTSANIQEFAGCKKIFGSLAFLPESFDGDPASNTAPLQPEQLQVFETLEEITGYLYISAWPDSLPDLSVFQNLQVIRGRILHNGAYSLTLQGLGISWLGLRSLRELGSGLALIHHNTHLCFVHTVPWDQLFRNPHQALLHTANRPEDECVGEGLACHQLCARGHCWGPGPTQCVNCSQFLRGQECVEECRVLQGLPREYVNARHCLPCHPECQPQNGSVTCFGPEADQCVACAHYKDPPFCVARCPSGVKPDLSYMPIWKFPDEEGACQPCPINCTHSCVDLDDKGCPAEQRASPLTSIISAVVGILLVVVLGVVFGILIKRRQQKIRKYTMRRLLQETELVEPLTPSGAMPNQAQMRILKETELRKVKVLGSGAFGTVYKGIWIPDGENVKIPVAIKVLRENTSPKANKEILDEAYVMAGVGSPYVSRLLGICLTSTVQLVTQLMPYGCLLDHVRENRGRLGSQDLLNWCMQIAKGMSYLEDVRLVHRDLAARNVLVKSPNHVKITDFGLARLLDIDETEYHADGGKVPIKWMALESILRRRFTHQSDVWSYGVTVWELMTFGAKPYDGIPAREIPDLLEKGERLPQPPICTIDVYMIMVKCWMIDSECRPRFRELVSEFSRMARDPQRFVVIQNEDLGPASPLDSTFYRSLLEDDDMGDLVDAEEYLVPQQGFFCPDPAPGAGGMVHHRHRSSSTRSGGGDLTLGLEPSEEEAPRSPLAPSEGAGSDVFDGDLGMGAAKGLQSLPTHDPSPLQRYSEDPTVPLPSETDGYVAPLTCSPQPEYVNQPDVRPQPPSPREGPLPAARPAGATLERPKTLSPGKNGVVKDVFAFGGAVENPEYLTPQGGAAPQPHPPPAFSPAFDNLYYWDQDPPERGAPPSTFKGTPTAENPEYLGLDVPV

| SMILES | IC50 | Ki |
| --- | --- | --- |
| Cc1ccc(N(CC2=NCCN2)c2cccc(O)c2)cc1 [PHENTOLAMINE] | Not Active |  |
| NC(=O)N1c2ccccc2CCc2ccccc21 | Not Active |  |
| CC(C)C(Br)C(=O)NC(N)=O (stereo not drawn) [BROMISOVALUM] | Not Active |  |
| COc1ccc(C[C@H]2NC[C@H](O)[C@H]2OC(C)=O)cc1 [ANISOMYCIN] | Not Active | Not Active |
| C[C@]12CCC(=O)C=C1CC[C@@H]1[C@@H]2CC[C@@]2(C)[C@H]1CC[C@]2(C)O [METHYLTESTOSTERONE] | Not Active |  |
| O=C1CC[C@@H](N2C(=O)c3ccccc3C2=O)C(=O)N1 | Not Active |  |
| Cc1c(O)c(=O)ccn1C [DEFERIPRONE] | Not Active |  |
| Clc1cccc(Cl)c1NC1=NCCN1 [CLONIDINE] | Not Active |  |

same assay, conditions: read-out: IC50

| SMILES | IC50 [µM] |
| --- | --- |
| CN(C)CCCN1c2ccccc2Sc2ccc(Cl)cc21 [CHLORPROMAZINE] | 19.4 |
